Each molecule was assayed against EGFR (human), P00533 [WT].
Chain of EGFR (human), P00533 [WT] (P00533 whole entry, looked up): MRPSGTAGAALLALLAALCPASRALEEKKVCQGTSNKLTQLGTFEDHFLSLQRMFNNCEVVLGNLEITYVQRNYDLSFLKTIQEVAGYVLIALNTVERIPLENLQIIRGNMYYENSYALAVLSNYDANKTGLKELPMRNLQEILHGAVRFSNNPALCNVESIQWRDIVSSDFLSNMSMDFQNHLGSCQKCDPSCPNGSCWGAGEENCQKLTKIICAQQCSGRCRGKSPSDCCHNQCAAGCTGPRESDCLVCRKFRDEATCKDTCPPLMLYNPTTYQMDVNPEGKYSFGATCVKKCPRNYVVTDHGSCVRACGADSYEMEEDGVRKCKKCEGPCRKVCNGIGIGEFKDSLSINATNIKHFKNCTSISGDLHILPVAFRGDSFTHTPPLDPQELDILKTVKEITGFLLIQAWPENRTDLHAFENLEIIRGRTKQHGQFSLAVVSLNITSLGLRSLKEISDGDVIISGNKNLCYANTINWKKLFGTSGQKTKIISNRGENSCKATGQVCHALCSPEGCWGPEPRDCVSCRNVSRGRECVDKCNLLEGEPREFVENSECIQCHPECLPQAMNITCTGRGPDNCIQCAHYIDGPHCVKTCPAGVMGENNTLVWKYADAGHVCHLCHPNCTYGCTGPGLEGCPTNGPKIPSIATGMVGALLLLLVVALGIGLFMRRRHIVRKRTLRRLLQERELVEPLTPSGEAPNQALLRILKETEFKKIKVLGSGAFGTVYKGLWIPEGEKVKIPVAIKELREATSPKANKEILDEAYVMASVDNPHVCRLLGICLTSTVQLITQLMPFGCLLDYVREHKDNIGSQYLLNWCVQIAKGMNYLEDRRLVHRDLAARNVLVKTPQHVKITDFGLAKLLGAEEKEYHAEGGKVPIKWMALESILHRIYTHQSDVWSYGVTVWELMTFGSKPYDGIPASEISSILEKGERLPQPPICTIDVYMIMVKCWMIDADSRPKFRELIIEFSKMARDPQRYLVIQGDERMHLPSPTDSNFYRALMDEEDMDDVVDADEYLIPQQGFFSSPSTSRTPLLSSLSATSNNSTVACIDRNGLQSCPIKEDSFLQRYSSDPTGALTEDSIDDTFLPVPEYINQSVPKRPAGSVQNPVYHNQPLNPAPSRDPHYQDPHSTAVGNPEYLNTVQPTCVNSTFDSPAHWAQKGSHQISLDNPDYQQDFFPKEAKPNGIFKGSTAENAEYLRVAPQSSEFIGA

Row | Compound | IC50
1 | C=CC(=O)Nc1cccc(Nc2nc(Nc3ccc4c(c3)CC(=O)N4)ncc2F)c1 | ≤ 10 nM
2 | C=CC(=O)Nc1cccc(Oc2nc(Nc3cccc(OCC4CCCN(C)C4)c3)ncc2F)c1 (centres undefined) | ≤ 10 nM
3 | C=CC(=O)Nc1cccc(Nc2nc(Nc3ccc(OCC(O)CO)c(F)c3)ncc2F)c1 (centres undefined) | ≤ 10 nM
4 | C=CC(=O)Nc1cccc(Nc2nc(Nc3ccc(OCC4CCN(C)CC4)cc3)ncc2F)c1 | ≤ 10 nM
5 | C=CC(=O)Nc1cccc(Oc2nc(Nc3ccc(OC)nc3)ncc2C(=O)Nc2ccccc2)c1 | ≤ 10 nM
6 | C=CC(=O)Nc1cccc(Nc2nc(Nc3cccc(OCC4CCN(C)CC4)c3)ncc2F)c1 | ≤ 10 nM
7 | C=CC(=O)Nc1cccc(Nc2nc(Nc3ccc(OCC4CCN(C)CC4)nc3)ncc2F)c1 | ≤ 10 nM
8 | C=CC(=O)Nc1cccc(Nc2nc(Nc3ccc(N4CCS(=O)(=O)CC4)nc3)ncc2F)c1 | ≤ 10 nM
9 | C=CC(=O)Nc1cccc(Oc2nc(Nc3cccc(OCC4CCN(C)CC4)c3)ncc2F)c1 | ≤ 10 nM
10 | C=CC(=O)Nc1cccc(Oc2nc(Nc3cccc(OCCN4CCCC4=O)c3)ncc2F)c1 | ≤ 10 nM
11 | C=CC(=O)Nc1cccc(Nc2nc(Nc3ccc(OCCOC)c(F)c3)ncc2C#N)c1 | ≤ 10 nM
12 | C=CC(=O)Nc1cccc(Oc2nc(Nc3cccc(N4CCN(CCO)CC4)c3)ncc2F)c1 | ≤ 10 nM
13 | C=CC(=O)N1CCOc2ccc(Nc3nc(Nc4ccc(OCCOC)cc4)ncc3C(C)=O)cc21 | ≤ 10 nM
14 | C=CC(=O)Nc1ccc(Nc2nc(Nc3ccc(OC)nc3)ncc2C(F)(F)F)cc1 | ≤ 10 nM
15 | C=CC(=O)Nc1cccc(Oc2nc(Nc3ccc(OC)nc3)ncc2C(C)=O)c1 | ≤ 10 nM
16 | C=CC(=O)N1CCC[C@@H](Nc2nc(Nc3cccc(Cl)c3)ncc2F)C1 | ≤ 10 nM

Row | Compound | IC50
17 | C=CC(=O)Nc1cccc(Nc2nc(Nc3ccc(OCCCNC(=O)OC(C)(C)C)cc3)ncc2F)c1 | ≤ 10 nM
18 | C=CC(=O)Nc1cccc(Nc2nc(Nc3cccc(OCC4CCCN(C)C4)c3)ncc2F)c1 (centres undefined) | ≤ 10 nM
19 | C=CC(=O)Nc1cccc(Oc2nc(Nc3cccc(OCCCN4CCCC4=O)c3)ncc2F)c1 | ≤ 10 nM
20 | C=CC(=O)Nc1cccc(Oc2nc(Nc3ccc(OC)nc3)ncc2C(=O)NC2CC2)c1 | ≤ 10 nM
21 | C=C(C)C(=O)Cc1cccc(Nc2nc(Nc3ccc(OCCOC)c(F)c3)ncc2F)c1 | ≤ 10 nM
22 | C=CC(=O)Nc1cccc(Oc2nc(Nc3cccc(OC)c3)ncc2C(=O)Nc2ccccc2)c1 | ≤ 10 nM
23 | C=CC(=O)Nc1cccc(Oc2nc(Nc3ccc(OC)nc3)ncc2C)c1 | ≤ 10 nM
24 | C=CC(=O)Nc1cccc(Oc2nc(Nc3cccc(OCCCS(C)(=O)=O)c3)ncc2F)c1 | ≤ 10 nM
25 | Cc1cnc(Nc2cccc(S(N)(=O)=O)c2)nc1Nc1ccc2c(c1)CCN(C(=O)CCl)C2 | ≤ 10 nM
26 | C=CC(=O)Nc1cccc(Oc2nc(Nc3cccc(OC)c3)ncc2C(N)=O)c1 | ≤ 10 nM
27 | C=CC(=O)Nc1cccc(Oc2nc(Nc3ccc(OCCOC)cc3)ncc2C2CC2)c1 | ≤ 10 nM
28 | C=CC(=O)Nc1cccc(Oc2nc(Nc3cccc(OC)c3)ncc2C(=O)NC2CC2)c1 | ≤ 10 nM
29 | C=CC(=O)Nc1cccc(Nc2nc(Nc3ccc(OCCOC)c(F)c3)ncc2C(F)(F)F)c1 | ≤ 10 nM
30 | C=CC(=O)Nc1cccc(Nc2nc(Nc3cccc(OCCCN4CCCC4=O)c3)ncc2F)c1 | ≤ 10 nM
31 | C=CC(=O)N1CCOc2ccc(Nc3nc(Nc4ccc(N5CCOCC5)cc4)ncc3C(C)=O)cc21 | ≤ 10 nM

More lines, now with the values ahead:

Row | IC50 | Compound
32 | ≤ 10 nM | C=CC(=O)Nc1cccc(Nc2nc(Nc3cccc(S(N)(=O)=O)c3)ncc2C)c1
33 | ≤ 10 nM | C=CC(=O)Nc1cccc(Nc2nc(Nc3cccc(S(N)(=O)=O)c3)ncc2F)c1
34 | ≤ 10 nM | C=CC(=O)Nc1cccc(Nc2nc(Nc3ccc4c(c3)NCCO4)ncc2F)c1
35 | ≤ 10 nM | C=CC(=O)Nc1cccc(Nc2nccc(Nc3cccc(C)c3)n2)c1
36 | ≤ 10 nM | C=CC(=O)Nc1cccc(Nc2nc(Nc3ccc4c(cnn4C)c3)ncc2F)c1
37 | ≤ 10 nM | C=CC(=O)Nc1cccc(Nc2nc(Nc3ccccc3)ncc2C(F)(F)F)c1
38 | ≤ 10 nM | C=CC(=O)Nc1cccc(Nc2nc(Nc3ccc(OCC(O)CO)cc3)ncc2F)c1 (centres undefined)
39 | ≤ 10 nM | C=CC(=O)Nc1cccc(Nc2ncc(F)c(Nc3cccc(C)c3)n2)c1
40 | ≤ 10 nM | C=CC(=O)Nc1cccc(Nc2ncc(C)c(Nc3ccccc3)n2)c1
41 | ≤ 10 nM | Cc1cccc(Nc2nc(Nc3cccc(NC(=O)/C=C/CN(C)C)c3)ncc2F)c1
42 | ≤ 10 nM | Cc1cccc(Nc2nc(Nc3cccc(NC(=O)/C=C/CN4CC[C@H](O)C4)c3)ncc2F)c1
43 | ≤ 10 nM | COCCN(C)C/C=C/C(=O)Nc1cccc(Nc2ncc(F)c(Nc3cccc(C)c3)n2)c1
44 | ≤ 10 nM | C=CC(=O)Nc1cccc(Nc2nc(Nc3cccc(OCC(O)CO)c3)ncc2F)c1 (centres undefined)
45 | ≤ 10 nM | C=CC(=O)Nc1cccc(Nc2nc(Nc3ccc(OCCOC)cc3)ncc2F)c1
46 | ≤ 10 nM | Cc1cccc(Nc2nc(Nc3cccc(NC(=O)/C=C/CN4CC[C@@H](O)C4)c3)ncc2F)c1
47 | ≤ 10 nM | C=CC(=O)Nc1ccc(C)c(Nc2ncc(C)c(Nc3cccc(C)c3)n2)c1
48 | ≤ 10 nM | Cc1cccc(Nc2nc(Nc3cccc(NC(=O)/C=C/CN(C)C)c3)ncc2C)c1
49 | ≤ 10 nM | C=CC(=O)Nc1cccc(Nc2nc(Nc3ccccc3)ncc2C#N)c1
50 | ≤ 10 nM | C=CC(=O)Nc1cccc(Nc2nc(Nc3ccc(OCCOC)cc3)ncc2C#N)c1
51 | ≤ 10 nM | C=CC(=O)Nc1cccc(Nc2nc(Nc3ccc(OC)nc3)ncc2C#N)c1
52 | ≤ 10 nM | C=CC(=O)Nc1cccc(Nc2nc(Nc3cccc(CO)c3)ncc2F)c1
53 | ≤ 10 nM | C=CC(=O)Nc1cccc(Nc2nc(Nc3ccc4[nH]ncc4c3)ncc2F)c1
54 | ≤ 10 nM | C=CC(=O)Nc1cccc(Nc2nc(Nc3ccccc3)ncc2C)c1
55 | ≤ 10 nM | C=CC(=O)Nc1cccc(Nc2nc(Nc3ccc(OC)nc3)ncc2C2CC2)c1
56 | ≤ 10 nM | C=CC(=O)Nc1cccc(Nc2nc(Nc3cccc(OCCN(C)C)c3)ncc2F)c1
57 | ≤ 10 nM | C=CC(=O)Nc1cccc(Oc2nc(Nc3ccccc3)ncc2C)c1

These molecules were tested against EGFR (human) (UniProt P00533).
Chain of EGFR (human) (P00533 whole entry, looked up): as above

Row | IC50 | Compound
58 | 2.23 nM | C=CC(=O)Nc1ccc(C)c(Nc2nccc(-c3cccnc3)n2)c1

What follows are molecules tested against EGFR (Human), P00533 [T790M/L858R].
Chain of EGFR (Human), P00533 [T790M/L858R] (P00533 whole entry T790M/L858R, looked up): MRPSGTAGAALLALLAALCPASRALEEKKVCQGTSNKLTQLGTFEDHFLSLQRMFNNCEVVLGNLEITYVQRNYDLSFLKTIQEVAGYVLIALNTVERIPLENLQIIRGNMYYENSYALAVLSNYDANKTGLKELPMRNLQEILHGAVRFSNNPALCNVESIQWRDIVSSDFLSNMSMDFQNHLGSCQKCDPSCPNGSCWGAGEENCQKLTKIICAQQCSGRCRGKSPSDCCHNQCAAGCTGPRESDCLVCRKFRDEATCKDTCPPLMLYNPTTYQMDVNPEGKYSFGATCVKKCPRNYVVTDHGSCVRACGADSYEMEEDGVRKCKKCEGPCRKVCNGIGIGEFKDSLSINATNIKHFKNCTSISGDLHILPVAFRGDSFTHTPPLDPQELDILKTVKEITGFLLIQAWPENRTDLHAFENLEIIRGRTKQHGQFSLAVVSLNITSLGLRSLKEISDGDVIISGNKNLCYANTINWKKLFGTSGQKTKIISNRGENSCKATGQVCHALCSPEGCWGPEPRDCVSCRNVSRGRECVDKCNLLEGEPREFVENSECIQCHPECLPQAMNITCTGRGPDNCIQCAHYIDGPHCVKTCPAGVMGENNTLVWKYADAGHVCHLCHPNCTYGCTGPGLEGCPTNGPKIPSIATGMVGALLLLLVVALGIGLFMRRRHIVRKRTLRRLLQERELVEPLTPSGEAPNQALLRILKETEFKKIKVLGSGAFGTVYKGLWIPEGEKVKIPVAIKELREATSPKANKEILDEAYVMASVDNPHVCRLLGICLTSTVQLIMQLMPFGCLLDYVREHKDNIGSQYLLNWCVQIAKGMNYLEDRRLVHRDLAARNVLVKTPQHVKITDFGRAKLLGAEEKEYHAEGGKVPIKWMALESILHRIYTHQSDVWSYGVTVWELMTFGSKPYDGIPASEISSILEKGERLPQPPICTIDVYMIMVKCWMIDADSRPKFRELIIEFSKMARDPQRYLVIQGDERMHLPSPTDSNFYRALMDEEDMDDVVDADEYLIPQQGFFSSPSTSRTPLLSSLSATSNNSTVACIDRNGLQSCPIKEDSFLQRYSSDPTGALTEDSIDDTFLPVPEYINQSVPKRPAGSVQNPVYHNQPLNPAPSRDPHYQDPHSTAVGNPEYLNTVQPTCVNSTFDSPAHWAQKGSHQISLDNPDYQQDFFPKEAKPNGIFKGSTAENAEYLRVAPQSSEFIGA

Row | Compound | IC50
59 | C=CC(=O)Nc1ccc(C)c(Nc2nccc(-c3cccnc3)n2)c1 | ≤ 10 nM
60 | C=CC(=O)Nc1cccc(Nc2nc(Nc3ccc(OCCOC)c(F)c3)ncc2F)c1 | ≤ 10 nM
61 | Cc1cnc(Nc2cccc(S(N)(=O)=O)c2)nc1Nc1ccc2c(c1)CCN(C(=O)CCl)C2 | ≤ 10 nM

The remaining lines, values ahead:

Row | IC50 | Compound
62 | ≤ 10 nM | C=CC(=O)Nc1cccc(Nc2nccc(Nc3cccc(C)c3)n2)c1
63 | ≤ 10 nM | Cc1cnc(Nc2ccccc2)nc1Nc1cccc(NC(=O)/C=C/CN(C)C)c1
64 | ≤ 10 nM | C=CC(=O)Nc1cccc(Nc2ncc(F)c(Nc3cccc(C)c3)n2)c1
65 | ≤ 10 nM | C=CC(=O)Nc1cccc(Nc2ncc(C)c(Nc3ccccc3)n2)c1
66 | ≤ 10 nM | Cc1cccc(Nc2nc(Nc3cccc(NC(=O)/C=C/CN(C)C)c3)ncc2F)c1
67 | ≤ 10 nM | C=CC(=O)Nc1ccc(C)c(Nc2ncc(C)c(Nc3cccc(C)c3)n2)c1
68 | ≤ 10 nM | C=CC(=O)Nc1cccc(Nc2ncc(C)c(Nc3cccc(C)c3)n2)c1
69 | ≤ 10 nM | C#CCOc1cccc(Nc2ncc(C)c(Nc3cccc(NC(=O)C=C)c3)n2)c1
70 | ≤ 10 nM | C=CC(=O)Nc1cccc(Nc2nc(Nc3ccccc3)ncc2C)c1

Each molecule was assayed against EGFR (human), P00533 [T790M].
Chain of EGFR (human), P00533 [T790M] (P00533 whole entry T790M, looked up): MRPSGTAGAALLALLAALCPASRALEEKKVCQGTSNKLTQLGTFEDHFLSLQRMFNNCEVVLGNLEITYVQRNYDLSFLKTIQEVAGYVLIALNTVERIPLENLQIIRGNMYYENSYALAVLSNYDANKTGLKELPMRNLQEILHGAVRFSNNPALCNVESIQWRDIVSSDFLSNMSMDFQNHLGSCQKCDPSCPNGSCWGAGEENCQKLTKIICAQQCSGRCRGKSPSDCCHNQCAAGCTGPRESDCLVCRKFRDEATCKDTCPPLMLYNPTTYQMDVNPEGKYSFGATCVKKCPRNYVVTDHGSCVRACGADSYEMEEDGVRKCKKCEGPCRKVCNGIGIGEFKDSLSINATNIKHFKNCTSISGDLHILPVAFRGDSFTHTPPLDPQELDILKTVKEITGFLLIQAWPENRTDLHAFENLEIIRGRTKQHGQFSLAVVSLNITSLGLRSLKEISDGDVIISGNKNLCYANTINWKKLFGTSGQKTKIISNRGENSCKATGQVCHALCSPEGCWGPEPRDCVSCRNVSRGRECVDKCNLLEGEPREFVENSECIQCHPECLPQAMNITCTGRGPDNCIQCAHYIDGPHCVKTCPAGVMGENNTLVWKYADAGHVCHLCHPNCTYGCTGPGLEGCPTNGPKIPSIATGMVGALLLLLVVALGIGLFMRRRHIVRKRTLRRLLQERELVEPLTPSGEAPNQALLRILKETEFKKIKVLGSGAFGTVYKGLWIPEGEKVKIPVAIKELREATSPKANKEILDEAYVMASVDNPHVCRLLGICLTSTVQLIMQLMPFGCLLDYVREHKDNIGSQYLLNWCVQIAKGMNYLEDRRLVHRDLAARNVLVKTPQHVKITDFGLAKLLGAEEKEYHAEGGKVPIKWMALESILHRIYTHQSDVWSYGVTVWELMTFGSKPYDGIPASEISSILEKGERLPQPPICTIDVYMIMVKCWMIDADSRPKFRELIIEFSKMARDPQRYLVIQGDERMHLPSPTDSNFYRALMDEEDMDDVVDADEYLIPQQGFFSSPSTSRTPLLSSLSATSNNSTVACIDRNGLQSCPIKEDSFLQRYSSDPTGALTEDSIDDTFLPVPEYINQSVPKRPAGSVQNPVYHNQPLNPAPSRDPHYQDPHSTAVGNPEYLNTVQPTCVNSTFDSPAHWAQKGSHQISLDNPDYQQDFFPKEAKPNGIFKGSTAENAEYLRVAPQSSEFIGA

Row | IC50 | Compound
71 | ≤ 10 nM | C=CC(=O)Nc1cccc(Nc2ncc(F)c(Nc3cccc(C)c3)n2)c1
72 | ≤ 10 nM | Cc1cccc(Nc2nc(Nc3cccc(NC(=O)/C=C/CN(C)C)c3)ncc2F)c1
73 | ≤ 10 nM | C=CC(=O)Nc1cccc(Nc2ncc(C)c(Nc3cccc(C)c3)n2)c1
74 | ≤ 10 nM | C=CC(=O)Nc1cccc(Nc2nc(Nc3ccc(OCCOC)c(F)c3)ncc2F)c1
